# From publication PMC6784069 (Toxins, 2019)
# Where two headings read alike, the source gives them in different places. Residues, ends and D or L forms follow the SMILES beside them.
# Columns and labels:
# hNaV1.7 [1] = molecular target: T1, hNaV1.7 (Homo sapiens, UniProt Q15858); assay: cell-based; type: cell-based; details: for IC50: hNaV1.7 IC50
# hCaV1.2 = hCaV1.2 (Homo sapiens, UniProt Q13936); assay: cell-based; details: read-out: IC90–95 (compound concentration necessary to inhibit 90–95% of current)
# hNaV1.7 [2] = molecular target: T1, hNaV1.7; details: cited from earlier work
# [3] = tested on: OD1-induced painful behavior of mice; details: mouse, in vivo; cited from earlier work
# T1 sequence (Q15858 whole entry): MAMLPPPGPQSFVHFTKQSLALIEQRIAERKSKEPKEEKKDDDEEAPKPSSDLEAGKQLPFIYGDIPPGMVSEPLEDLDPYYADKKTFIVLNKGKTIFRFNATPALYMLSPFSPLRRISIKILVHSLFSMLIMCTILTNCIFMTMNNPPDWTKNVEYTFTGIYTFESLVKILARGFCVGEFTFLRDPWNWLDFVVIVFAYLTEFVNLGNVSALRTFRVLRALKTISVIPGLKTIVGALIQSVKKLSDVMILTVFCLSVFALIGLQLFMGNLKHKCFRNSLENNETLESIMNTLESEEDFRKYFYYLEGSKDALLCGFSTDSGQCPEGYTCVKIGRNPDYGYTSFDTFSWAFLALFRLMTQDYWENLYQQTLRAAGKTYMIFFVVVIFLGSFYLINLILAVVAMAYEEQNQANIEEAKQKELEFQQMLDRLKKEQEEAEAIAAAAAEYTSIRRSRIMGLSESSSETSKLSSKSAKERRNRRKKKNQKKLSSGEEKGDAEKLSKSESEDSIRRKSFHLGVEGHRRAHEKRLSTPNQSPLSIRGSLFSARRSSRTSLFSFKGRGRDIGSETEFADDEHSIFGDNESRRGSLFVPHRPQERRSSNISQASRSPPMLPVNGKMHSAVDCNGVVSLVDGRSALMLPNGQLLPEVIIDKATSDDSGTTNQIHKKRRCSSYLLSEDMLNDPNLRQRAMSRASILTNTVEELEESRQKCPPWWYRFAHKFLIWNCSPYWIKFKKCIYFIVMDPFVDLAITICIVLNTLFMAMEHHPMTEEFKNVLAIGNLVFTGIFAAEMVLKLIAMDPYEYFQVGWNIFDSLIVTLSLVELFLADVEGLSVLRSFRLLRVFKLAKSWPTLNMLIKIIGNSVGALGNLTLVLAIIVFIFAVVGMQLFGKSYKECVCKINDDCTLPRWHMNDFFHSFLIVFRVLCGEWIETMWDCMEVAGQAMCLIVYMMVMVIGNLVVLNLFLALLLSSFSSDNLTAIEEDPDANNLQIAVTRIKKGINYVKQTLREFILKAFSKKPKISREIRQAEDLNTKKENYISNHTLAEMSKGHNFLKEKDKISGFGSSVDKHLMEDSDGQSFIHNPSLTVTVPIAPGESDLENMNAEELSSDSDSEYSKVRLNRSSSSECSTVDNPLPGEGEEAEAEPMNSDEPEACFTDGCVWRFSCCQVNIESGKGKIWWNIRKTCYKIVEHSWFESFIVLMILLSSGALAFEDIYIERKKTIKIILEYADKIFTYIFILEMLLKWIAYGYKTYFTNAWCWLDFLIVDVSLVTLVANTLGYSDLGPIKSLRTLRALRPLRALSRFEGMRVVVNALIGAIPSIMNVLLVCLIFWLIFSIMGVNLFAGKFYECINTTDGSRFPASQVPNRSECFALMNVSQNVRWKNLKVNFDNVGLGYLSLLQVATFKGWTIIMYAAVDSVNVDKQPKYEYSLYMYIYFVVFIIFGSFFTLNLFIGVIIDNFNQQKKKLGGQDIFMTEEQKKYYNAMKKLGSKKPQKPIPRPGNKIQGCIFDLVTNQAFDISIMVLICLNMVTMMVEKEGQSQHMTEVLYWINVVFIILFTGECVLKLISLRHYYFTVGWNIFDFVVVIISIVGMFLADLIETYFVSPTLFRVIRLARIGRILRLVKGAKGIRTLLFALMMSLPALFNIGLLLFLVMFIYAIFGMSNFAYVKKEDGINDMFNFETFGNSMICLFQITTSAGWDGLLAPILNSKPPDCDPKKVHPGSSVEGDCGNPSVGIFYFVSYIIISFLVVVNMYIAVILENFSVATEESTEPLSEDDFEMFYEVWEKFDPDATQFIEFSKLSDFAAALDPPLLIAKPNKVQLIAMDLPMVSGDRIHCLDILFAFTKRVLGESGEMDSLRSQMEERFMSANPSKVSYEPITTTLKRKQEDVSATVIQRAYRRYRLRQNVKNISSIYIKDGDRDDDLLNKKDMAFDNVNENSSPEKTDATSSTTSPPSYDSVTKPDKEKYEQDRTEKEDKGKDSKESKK
Molecule,modification of variant affinity for hNaV1.7 relative to wild-type (hNaV1.7 [1]),IC50 (hNaV1.7 [1]; SD),also measured
"CC(C)C[C@@H]1NC(=O)[C@@H](NC(=O)[C@@H]2CCC(=O)N2)CSSC[C@@H]2NC(=O)[C@@H]3CSSC[C@@H](C(=O)N[C@@H](CCCNC(=N)N)C(=O)N[C@@H](Cc4ccc(O)cc4)C(=O)N[C@@H](CCCCN)C(=O)N[C@@H](CC(C)C)C(=O)N[C@@H](Cc4ccccc4)C(=O)O)NC(=O)[C@H](Cc4c[nH]c5ccccc45)NC(=O)[C@@H]4CCCN4C(=O)[C@H](Cc4ccc(O)cc4)NC(=O)[C@H](CCCCN)NC(=O)[C@H](Cc4c[nH]c5ccccc45)NC(=O)[C@H](CCC(=O)O)NC(=O)[C@H](CSSC[C@H](NC(=O)[C@H](CO)NC(=O)[C@H](CC(=O)O)NC(=O)[C@H](Cc4c[nH]c5ccccc45)NC(=O)[C@H](CCC(N)=O)NC(=O)CNC1=O)C(=O)N[C@@H](CC(=O)O)C(=O)N1CCC[C@H]1C(=O)N[C@@H](CCCCN)C(=O)N[C@@H](C)C(=O)N[C@@H](CO)C(=O)N[C@@H](CCCCN)C(=O)N3)NC(=O)[C@H](C)NC(=O)[C@H](Cc1ccc(O)cc1)NC(=O)[C@H](CC(N)=O)NC(=O)[C@@H]1CCCN1C2=O [A1Z] (HELM PEPTIDE1{[Glp].C.L.G.Q.W.D.S.C.D.P.K.A.S.K.C.C.P.N.Y.A.C.E.W.K.Y.P.W.C.R.Y.K.L.F}$PEPTIDE1,PEPTIDE1,2:R3-17:R3|PEPTIDE1,PEPTIDE1,9:R3-22:R3|PEPTIDE1,PEPTIDE1,16:R3-29:R3$$$V2.0)",less than 3 fold,172 nM,–
"[Cl][Cd][Cl] [Cadmium (chloride), reference compound]",–,–,IC90 (hCaV1.2): 200000 nM
"CC(C)C[C@@H]1NC(=O)[C@@H](NC(=O)[C@H](C)N)CSSC[C@@H]2NC(=O)[C@@H]3CSSC[C@@H](C(=O)N[C@@H](CCCNC(=N)N)C(=O)N[C@@H](Cc4ccc(O)cc4)C(=O)N[C@@H](CCCCN)C(=O)N[C@@H](CC(C)C)C(=O)N[C@@H](Cc4ccccc4)C(=O)O)NC(=O)[C@H](Cc4c[nH]c5ccccc45)NC(=O)[C@@H]4CCCN4C(=O)[C@H](Cc4ccc(O)cc4)NC(=O)[C@H](CCCCN)NC(=O)[C@H](Cc4c[nH]c5ccccc45)NC(=O)[C@H](CCC(=O)O)NC(=O)[C@H](CSSC[C@H](NC(=O)[C@H](CO)NC(=O)[C@H](CC(=O)O)NC(=O)[C@H](Cc4c[nH]c5ccccc45)NC(=O)[C@H](CCC(N)=O)NC(=O)CNC1=O)C(=O)N[C@@H](CC(=O)O)C(=O)N1CCC[C@H]1C(=O)N[C@@H](C)C(=O)N[C@@H](C)C(=O)N[C@@H](CO)C(=O)N[C@@H](CCCCN)C(=O)N3)NC(=O)[C@H](C)NC(=O)[C@H](Cc1ccc(O)cc1)NC(=O)[C@H](CC(N)=O)NC(=O)[C@@H]1CCCN1C2=O [K12A] (HELM PEPTIDE1{A.C.L.G.Q.W.D.S.C.D.P.A.A.S.K.C.C.P.N.Y.A.C.E.W.K.Y.P.W.C.R.Y.K.L.F}$PEPTIDE1,PEPTIDE1,2:R3-17:R3|PEPTIDE1,PEPTIDE1,9:R3-22:R3|PEPTIDE1,PEPTIDE1,16:R3-29:R3$$$V2.0)",less than 3 fold,252 nM,–
"CC(C)C[C@@H]1NC(=O)[C@@H](NC(=O)[C@H](C)N)CSSC[C@@H]2NC(=O)[C@@H]3CSSC[C@@H](C(=O)N[C@@H](CCCNC(=N)N)C(=O)N[C@@H](Cc4ccc(O)cc4)C(=O)N[C@@H](CCCCN)C(=O)N[C@@H](CC(C)C)C(=O)N[C@@H](Cc4ccccc4)C(=O)O)NC(=O)[C@H](Cc4c[nH]c5ccccc45)NC(=O)[C@@H]4CCCN4C(=O)[C@H](Cc4ccc(O)cc4)NC(=O)[C@H](CCCCN)NC(=O)[C@H](Cc4c[nH]c5ccccc45)NC(=O)[C@H](CCC(=O)O)NC(=O)[C@H](CSSC[C@H](NC(=O)[C@H](CO)NC(=O)[C@H](CC(=O)O)NC(=O)[C@H](Cc4c[nH]c5ccccc45)NC(=O)[C@H](CCC(N)=O)NC(=O)CNC1=O)C(=O)N[C@@H](CC(=O)O)C(=O)N1CCC[C@H]1C(=O)N[C@@H](CCCCN)C(=O)N[C@@H](C)C(=O)N[C@@H](CO)C(=O)N[C@@H](C)C(=O)N3)NC(=O)[C@H](C)NC(=O)[C@H](Cc1ccc(O)cc1)NC(=O)[C@H](CC(N)=O)NC(=O)[C@@H]1CCCN1C2=O [K15A] (HELM PEPTIDE1{A.C.L.G.Q.W.D.S.C.D.P.K.A.S.A.C.C.P.N.Y.A.C.E.W.K.Y.P.W.C.R.Y.K.L.F}$PEPTIDE1,PEPTIDE1,2:R3-17:R3|PEPTIDE1,PEPTIDE1,9:R3-22:R3|PEPTIDE1,PEPTIDE1,16:R3-29:R3$$$V2.0)",less than 3 fold,706 nM,–
"CC(C)C[C@@H]1NC(=O)[C@@H](NC(=O)[C@H](C)N)CSSC[C@@H]2NC(=O)[C@@H]3CSSC[C@@H](C(=O)N[C@@H](CCCNC(=N)N)C(=O)N[C@@H](Cc4ccc(O)cc4)C(=O)N[C@@H](CCCCN)C(=O)N[C@@H](CC(C)C)C(=O)N[C@@H](Cc4ccccc4)C(=O)O)NC(=O)[C@H](Cc4c[nH]c5ccccc45)NC(=O)[C@@H]4CCCN4C(=O)[C@H](Cc4ccc(O)cc4)NC(=O)[C@H](C)NC(=O)[C@H](Cc4c[nH]c5ccccc45)NC(=O)[C@H](CCC(=O)O)NC(=O)[C@H](CSSC[C@H](NC(=O)[C@H](CO)NC(=O)[C@H](CC(=O)O)NC(=O)[C@H](Cc4c[nH]c5ccccc45)NC(=O)[C@H](CCC(N)=O)NC(=O)CNC1=O)C(=O)N[C@@H](CC(=O)O)C(=O)N1CCC[C@H]1C(=O)N[C@@H](CCCCN)C(=O)N[C@@H](C)C(=O)N[C@@H](CO)C(=O)N[C@@H](CCCCN)C(=O)N3)NC(=O)[C@H](C)NC(=O)[C@H](Cc1ccc(O)cc1)NC(=O)[C@H](CC(N)=O)NC(=O)[C@@H]1CCCN1C2=O [K25A] (HELM PEPTIDE1{A.C.L.G.Q.W.D.S.C.D.P.K.A.S.K.C.C.P.N.Y.A.C.E.W.A.Y.P.W.C.R.Y.K.L.F}$PEPTIDE1,PEPTIDE1,2:R3-17:R3|PEPTIDE1,PEPTIDE1,9:R3-22:R3|PEPTIDE1,PEPTIDE1,16:R3-29:R3$$$V2.0)",–,–,IC50 (hNaV1.7 [1]): > 10000 nM
"COC(=O)C1=C(C)NC(C)=C(C(=O)OC)C1c1ccccc1[N+](=O)[O-] [Nifedipine, reference compound]",–,–,IC90 (hCaV1.2; CHO): 10000 nM
"CC(C)C[C@@H]1NC(=O)[C@@H](NC(=O)[C@H](C)N)CSSC[C@@H]2NC(=O)[C@@H]3CSSC[C@@H](C(=O)N[C@@H](CCCNC(=N)N)C(=O)N[C@@H](Cc4ccc(O)cc4)C(=O)N[C@@H](CCCCN)C(=O)N[C@@H](CC(C)C)C(=O)N[C@@H](Cc4ccccc4)C(=O)O)NC(=O)[C@H](Cc4c[nH]c5ccccc45)NC(=O)[C@@H]4CCCN4C(=O)[C@H](Cc4ccc(O)cc4)NC(=O)[C@H](CCCCN)NC(=O)[C@H](Cc4c[nH]c5ccccc45)NC(=O)[C@H](CCC(=O)O)NC(=O)[C@H](CSSC[C@H](NC(=O)[C@H](C)NC(=O)[C@H](CC(=O)O)NC(=O)[C@H](Cc4c[nH]c5ccccc45)NC(=O)[C@H](CCC(N)=O)NC(=O)CNC1=O)C(=O)N[C@@H](CC(=O)O)C(=O)N1CCC[C@H]1C(=O)N[C@@H](CCCCN)C(=O)N[C@@H](C)C(=O)N[C@@H](CO)C(=O)N[C@@H](CCCCN)C(=O)N3)NC(=O)[C@H](C)NC(=O)[C@H](Cc1ccc(O)cc1)NC(=O)[C@H](CC(N)=O)NC(=O)[C@@H]1CCCN1C2=O [S8A] (HELM PEPTIDE1{A.C.L.G.Q.W.D.A.C.D.P.K.A.S.K.C.C.P.N.Y.A.C.E.W.K.Y.P.W.C.R.Y.K.L.F}$PEPTIDE1,PEPTIDE1,2:R3-17:R3|PEPTIDE1,PEPTIDE1,9:R3-22:R3|PEPTIDE1,PEPTIDE1,16:R3-29:R3$$$V2.0)",less than 3 fold,180 nM,–
"CC(C)C[C@@H]1NC(=O)[C@@H](NC(=O)[C@H](C)N)CSSC[C@@H]2NC(=O)[C@@H]3CSSC[C@@H](C(=O)N[C@@H](CCCNC(=N)N)C(=O)N[C@@H](Cc4ccc(O)cc4)C(=O)N[C@@H](CCCCN)C(=O)N[C@@H](CC(C)C)C(=O)N[C@@H](Cc4ccccc4)C(=O)O)NC(=O)[C@H](Cc4c[nH]c5ccccc45)NC(=O)[C@@H]4CCCN4C(=O)[C@H](Cc4ccc(O)cc4)NC(=O)[C@H](CCCCN)NC(=O)[C@H](C)NC(=O)[C@H](CCC(=O)O)NC(=O)[C@H](CSSC[C@H](NC(=O)[C@H](CO)NC(=O)[C@H](CC(=O)O)NC(=O)[C@H](Cc4c[nH]c5ccccc45)NC(=O)[C@H](CCC(N)=O)NC(=O)CNC1=O)C(=O)N[C@@H](CC(=O)O)C(=O)N1CCC[C@H]1C(=O)N[C@@H](CCCCN)C(=O)N[C@@H](C)C(=O)N[C@@H](CO)C(=O)N[C@@H](CCCCN)C(=O)N3)NC(=O)[C@H](C)NC(=O)[C@H](Cc1ccc(O)cc1)NC(=O)[C@H](CC(N)=O)NC(=O)[C@@H]1CCCN1C2=O [W24A] (HELM PEPTIDE1{A.C.L.G.Q.W.D.S.C.D.P.K.A.S.K.C.C.P.N.Y.A.C.E.A.K.Y.P.W.C.R.Y.K.L.F}$PEPTIDE1,PEPTIDE1,2:R3-17:R3|PEPTIDE1,PEPTIDE1,9:R3-22:R3|PEPTIDE1,PEPTIDE1,16:R3-29:R3$$$V2.0)",–,–,IC50 (hNaV1.7 [1]): > 10000 nM
"CC(C)C[C@@H]1NC(=O)[C@@H](NC(=O)[C@H](C)N)CSSC[C@@H]2NC(=O)[C@@H]3CSSC[C@@H](C(=O)N[C@@H](CCCNC(=N)N)C(=O)N[C@@H](Cc4ccc(O)cc4)C(=O)N[C@@H](CCCCN)C(=O)N[C@@H](CC(C)C)C(=O)N[C@@H](Cc4ccccc4)C(=O)O)NC(=O)[C@H](Cc4c[nH]c5ccccc45)NC(=O)[C@@H]4CCCN4C(=O)[C@H](C)NC(=O)[C@H](CCCCN)NC(=O)[C@H](Cc4c[nH]c5ccccc45)NC(=O)[C@H](CCC(=O)O)NC(=O)[C@H](CSSC[C@H](NC(=O)[C@H](CO)NC(=O)[C@H](CC(=O)O)NC(=O)[C@H](Cc4c[nH]c5ccccc45)NC(=O)[C@H](CCC(N)=O)NC(=O)CNC1=O)C(=O)N[C@@H](CC(=O)O)C(=O)N1CCC[C@H]1C(=O)N[C@@H](CCCCN)C(=O)N[C@@H](C)C(=O)N[C@@H](CO)C(=O)N[C@@H](CCCCN)C(=O)N3)NC(=O)[C@H](C)NC(=O)[C@H](Cc1ccc(O)cc1)NC(=O)[C@H](CC(N)=O)NC(=O)[C@@H]1CCCN1C2=O [Y26A] (HELM PEPTIDE1{A.C.L.G.Q.W.D.S.C.D.P.K.A.S.K.C.C.P.N.Y.A.C.E.W.K.A.P.W.C.R.Y.K.L.F}$PEPTIDE1,PEPTIDE1,2:R3-17:R3|PEPTIDE1,PEPTIDE1,9:R3-22:R3|PEPTIDE1,PEPTIDE1,16:R3-29:R3$$$V2.0)",–,–,IC50 (hNaV1.7 [1]): > 10000 nM
"CcoTx1: spider toxin, NaV ligand (CLGWFKSCDPKNDKCCKNYTCSRRDRWCKYDL)",–,–,IC50 (hNaV1.7 [2]): 2 to 130 nM; concentration efficient to diminish or completely reverse the OD1-induced manifestations of pain [3]: 1 µM
"Pre1a: spider toxin, NaV ligand (CLGWFSRCSPKNDKCCPNYKCSSKDLWCKYKIW)",–,–,IC50 (hNaV1.7 [2]): 114 nM
